Results reported in patent US20250230171A1 (MOMA Therapeutics, Inc., priority 2023, published 2025).

How the values were obtained:
DLD1 BRCA2 (−/−) cells = assay: 7-day cell viability assay (CellTiter-Glo), DLD1 BRCA2 (−/−); format: cell-based, human; details: Homo sapiens, DLD-1, 168 h, 7-day viability, n=2, read-out: Viability IC50 (uM) DLD1 BRCA2 null
Summary of the method: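 7-day growth assay in DLD1 cells with or without BRCA2; seeding densities chosen to keep log-linear growth. Compound: 10 uM top, 3-fold, 9 points. Endpoint: CTG ATP luminescence at RT.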

[1] = biological target: biotinylated Avi-POLθ[2-894] (Homo sapiens (Human), UniProt O75417); assay: POLθ ATPase assay (ADP-Glo); details: n=2; read-out: Biochemical ATPase ADPGlo IC50
DLD1 WT cells = assay: 7-day cell viability assay (CellTiter-Glo), DLD1 parental (WT); format: cell-based, human; details: Homo sapiens, DLD-1, 168 h, 7-day viability, n=2

Chain of biotinylated Avi-POLθ[2-894] (O75417 2-894): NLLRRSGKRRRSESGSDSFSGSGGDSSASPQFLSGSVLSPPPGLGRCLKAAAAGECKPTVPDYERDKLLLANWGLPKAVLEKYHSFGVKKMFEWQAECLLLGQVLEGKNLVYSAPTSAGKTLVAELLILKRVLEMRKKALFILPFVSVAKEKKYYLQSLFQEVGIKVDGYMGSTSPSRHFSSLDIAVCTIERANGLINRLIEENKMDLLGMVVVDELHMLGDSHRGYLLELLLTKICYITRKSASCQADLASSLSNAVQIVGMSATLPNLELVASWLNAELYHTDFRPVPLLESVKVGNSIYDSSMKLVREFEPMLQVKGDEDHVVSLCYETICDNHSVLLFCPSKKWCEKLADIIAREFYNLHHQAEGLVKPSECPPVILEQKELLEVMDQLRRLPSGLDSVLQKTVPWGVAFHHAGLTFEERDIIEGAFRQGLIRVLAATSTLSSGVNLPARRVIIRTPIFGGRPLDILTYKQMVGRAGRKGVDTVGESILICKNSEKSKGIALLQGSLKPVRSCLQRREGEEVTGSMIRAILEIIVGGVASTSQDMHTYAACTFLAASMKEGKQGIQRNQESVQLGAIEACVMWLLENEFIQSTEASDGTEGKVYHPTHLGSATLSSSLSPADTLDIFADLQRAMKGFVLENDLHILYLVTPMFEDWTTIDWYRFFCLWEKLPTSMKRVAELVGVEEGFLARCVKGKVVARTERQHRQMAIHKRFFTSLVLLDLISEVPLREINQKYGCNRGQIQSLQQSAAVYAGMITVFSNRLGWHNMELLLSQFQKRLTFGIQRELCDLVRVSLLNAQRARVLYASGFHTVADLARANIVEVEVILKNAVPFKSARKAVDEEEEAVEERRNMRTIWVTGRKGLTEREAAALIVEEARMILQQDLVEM

| SMILES | IC50 (DLD1 BRCA2 (−/−) cells) [µM] | IC50 [1] [nM] | IC50 (DLD1 WT cells) [µM] |
| --- | --- | --- | --- |
| COc1cnc(Cl)cc1-c1cc(C)ncc1C(=O)Nc1nc2c(s1)CN(C(=O)c1cc(C(F)(F)F)nn1C)C2 [Example 44, 2′-chloro-5′-methoxy-6-methyl-N-(5-(1-methyl-3-(trifluoromethyl)-1H-pyrazole-5-carbonyl)-5,6-dihydro-4H-pyrrolo[3,4-d]thiazol-2-yl)-[4,4′-bipyridine]-3-carboxamide] | 0.001 to 0.1 | 1 to 15 | ≥ 10 |
| COc1cnc(Cl)cc1-c1cc(C)ncc1C(=O)Nc1nc2c(s1)CN(C(=O)c1ncc(C)o1)C2 [Example 45, 2′-chloro-5′-methoxy-6-methyl-N-(5-(5-methyloxazole-2-carbonyl)-5,6-dihydro-4H-pyrrolo[3,4-d]thiazol-2-yl)-[4,4′-bipyridine]-3-carboxamide] | 0.001 to 0.1 | 1 to 15 | 2 to 5 |
| COc1cnc(Cl)cc1-c1cc(C)ncc1C(=O)Nc1nc2c(s1)CN(C(=O)c1nn(C)c3c1CCC3)C2 [Example 47, 2′-chloro-5′-methoxy-6-methyl-N-(5-(1-methyl-1,4,5,6-tetrahydrocyclopenta[c]pyrazole-3-carbonyl)-5,6-dihydro-4H-pyrrolo[3,4-d]thiazol-2-yl)-[4,4′-bipyridine]-3-carboxamide] | 0.001 to 0.1 | 1 to 15 | 5 to 10 |
| COc1cnc(Cl)cc1-c1cc(C)ncc1C(=O)Nc1nc2c(s1)CN(C(=O)[C@H]1CC[C@@H](OC)CC1)C2 [Example 48, 2′-chloro-5′-methoxy-N-(5-((1s,4s)-4-methoxycyclohexane-1-carbonyl)-5,6-dibydro-4H-pyrrolo[3,4-d]thiazol-2-yl)-6-methyl-[4,4′-bipyridine]-3-carboxamide] | 0.001 to 0.1 | 1 to 15 | ≥ 10 |
| COc1cnc(Cl)cc1-c1cc(C)ncc1C(=O)Nc1nc2c(s1)CN(C(=O)c1cc(C)nn1C)C2 [Example 49, 2′-chloro-N-(5-(1,3-dimethyl-1H-pyrazole-5-carbonyl)-5,6-dihydro-4H-pyrrolo[3,4-d]thiazol-2-yl)-5′-methoxy-6-methyl-[4,4′-bipyridine]-3-carboxamide] | 0.001 to 0.1 | 1 to 15 | ≥ 10 |
| COc1cnc(Cl)cc1-c1cc(C)ncc1C(=O)Nc1nc2c(s1)CN(C(=O)c1cc(C)n(C(F)F)n1)C2 [Example 52, 2′-chloro-N-(5-(1-(difluoromethyl)-5-methyl-1H-pyrazole-3-carbonyl)-5,6-dihydro-4H-pyrrolo[3,4-d]thiazol-2-yl)-5′-methoxy-6-methyl-[4,4′-bipyridine]-3-carboxamide] | 0.001 to 0.1 | 1 to 15 | ≥ 10 |
| CCc1cc(C(=O)N2Cc3nc(NC(=O)c4cnc(C)cc4-c4cc(Cl)ncc4OC)sc3C2)n(C)n1 [Example 57, 2′-chloro-N-(5-(3-ethyl-1-methyl-1H-pyrazole-5-carbonyl)-5,6-dihydro-4H-pyrrolo[3,4-d]thiazol-2-yl)-5′-methoxy-6-methyl-[4,4′-bipyridine]-3-carboxamide] | 0.001 to 0.1 | 1 to 15 | ≥ 10 |
| CCc1cc(C(=O)N2Cc3nc(NC(=O)c4cnc(C)cc4-c4cc(Cl)ncc4OC)sc3C2)nn1C [Example 58, 2′-chloro-N-(5-(5-ethyl-1-methyl-1H-pyrazole-3-carbonyl)-5,6-dihydro-4H-pyrrolo[3,4-d]thiazol-2-yl)-5′-methoxy-6-methyl-[4,4′-bipyridine]-3-carboxamide] | 0.001 to 0.1 | 1 to 15 | ≥ 10 |
| COc1cnc(Cl)cc1-c1cc(C)ncc1C(=O)Nc1nc2c(s1)CN(C(=O)c1cc3n(n1)CCC3)C2 [Example 63, 2′-chloro-N-(5-(5,6-dihydro-4H-pyrrolo[1,2-b]pyrazole-2-carbonyl)-5,6-dihydro-4H-pyrrolo[3,4-d]thiazol-2-yl)-5′-methoxy-6-methyl-[4,4′-bipyridine]-3-carboxamide] | 0.001 to 0.1 | 1 to 15 | 5 to 10 |
| COc1cnc(Cl)cc1-c1cc(C)ncc1C(=O)Nc1nc2c(s1)CN(C(=O)C1CC3(C1)CC(F)(F)C3)C2 [Example 64, 2′-chloro-N-(5-(6,6-difluorospiro[3.3]heptane-2-carbonyl)-5,6-dihydro-4H-pyrrolo[3,4-d]thiazol-2-yl)-5′-methoxy-6-methyl-[4,4′-bipyridine]-3-carboxamide] | 0.001 to 0.1 | 1 to 15 | 5 to 10 |
| COc1cnc(Cl)cc1-c1cc(C)ncc1C(=O)Nc1nc2c(s1)CN(C(=O)c1nn(C)c(C)c1F)C2 [Example 66] | 0.001 to 0.1 | 1 to 15 | 5 to 10 |
| COc1cnc(Cl)cc1-c1cc(C)ncc1C(=O)Nc1nc2c(s1)CN(C(=O)c1nc(C)co1)C2 [Example 67, 2′-chloro-5′-methoxy-6-methyl-N-(5-(4-methyloxazole-2-carbonyl)-5,6-dihydro-4H-pyrrolo[3,4-d]thiazol-2-yl)-[4,4′-bipyridine]-3-carboxamide] | 0.001 to 0.1 | 1 to 15 | 0.5 to 2 |
| COc1cnc(Cl)cc1-c1cc(C)ncc1C(=O)Nc1nc2c(s1)CN(C(=O)c1cc(Cl)n(C)n1)C2 [Example 73, 2′-chloro-N-(5-(5-chloro-1-methyl-1H-pyrazole-3-carbonyl)-5,6-dihydro-4H-pyrrolo[3,4-d]thiazol-2-yl)-5′-methoxy-6-methyl-[4,4′-bipyridine]-3-carboxamide] | 0.001 to 0.1 | 1 to 15 | 0.001 to 0.5 |
| COc1cnc(Cl)cc1-c1cc(C)ncc1C(=O)Nc1nc2c(s1)CN(C(=O)c1nn(C)c(C)c1Cl)C2 [Example 74, 2′-chloro-N-(5-(4-chloro-1,5-dimethyl-1H-pyrazole-3-carbonyl)-5,6-dihydro-4H-pyrrolo[3,4-d]thiazol-2-yl)-5′-methoxy-6-methyl-[4,4′-bipyridine]-3-carboxamide] | 0.001 to 0.1 | 1 to 15 | 0.001 to 0.5 |
| COc1cnc(Cl)cc1-c1cc(C)ncc1C(=O)Nc1nc2c(s1)CN(C(=O)c1cc(Cl)ccn1)C2 [Example 78, 2′-chloro-N-(5-(4-chloropicolinoyl)-5,6-dihydro-4H-pyrrolo[3,4-d]thiazol-2-yl)-5′-methoxy-6-methyl-[4,4′-bipyridine]-3-carboxamide] | 0.001 to 0.1 | 1 to 15 | 5 to 10 |
| COc1cnc(C(=O)N2Cc3nc(NC(=O)c4cnc(C)cc4-c4cc(Cl)ncc4OC)sc3C2)o1 [Example 79, 2′-chloro-5′-methoxy-N-(5-(5-methoxyoxazole-2-carbonyl)-5,6-dihydro-4H-pyrrolo[3,4-d]thiazol-2-yl)-6-methyl-[4,4′-bipyridine]-3-carboxamide] | 0.001 to 0.1 | 1 to 15 | 0.5 to 2 |
| COc1cnc(Cl)cc1-c1cc(C)ncc1C(=O)Nc1nc2c(s1)CN(C(=O)c1c(C)cnn1C)C2 [Example 81, 2′-chloro-N-(5-(1,4-dimethyl-1H-pyrazole-5-carbonyl)-5,6-dihydro-4H-pyrrolo[3,4-d]thiazol-2-yl)-5′-methoxy-6-methyl-[4,4′-bipyridine]-3-carboxamide] | 0.001 to 0.1 | 1 to 15 | ≥ 10 |
| COc1cnc(Cl)cc1-c1cc(C)ncc1C(=O)Nc1nc2c(s1)CN(C(=O)c1cnn(C)c1C(F)(F)F)C2 [Example 84, 2′-chloro-5′-methoxy-6-methyl-N-(5-(1-methyl-5-(trifluoromethyl)-1H-pyrazole-4-carbonyl)-5,6-dihydro-4H-pyrrolo[3,4-d]thiazol-2-yl)-[4,4′-bipyridine]-3-carboxamide] | 0.001 to 0.1 | 1 to 15 | ≥ 10 |
| COc1cnc(Cl)cc1-c1cc(C)ncc1C(=O)Nc1nc2c(s1)CN(C(=O)c1c(C(F)F)nn(C)c1Cl)C2 [Example 89, 2′-chloro-N-(5-(5-chloro-3-(difluoromethyl)-1-methyl-1H-pyrazole-4-carbonyl)-5,6-dihydro-4H-pyrrolo[3,4-d]thiazol-2-yl)-5′-methoxy-6-methyl-[4,4′-bipyridine]-3-carboxamide] | 0.001 to 0.1 | 1 to 15 | ≥ 10 |
| COc1cc(C(=O)N2Cc3nc(NC(=O)c4cnc(C)cc4-c4cc(Cl)ncc4OC)sc3C2)n(C)n1 [Example 90, 2′-chloro-5′-methoxy-N-(5-(3-methoxy-1-methyl-1H-pyrazole-5-carbonyl)-5,6-dihydro-4H-pyrrolo[3,4-d]thiazol-2-yl)-6-methyl-[4,4′-bipyridine]-3-carboxamide] | 0.001 to 0.1 | 1 to 15 | ≥ 10 |
| COc1cnc(Cl)cc1-c1cc(C)ncc1C(=O)Nc1nc2c(s1)CN(C(=O)c1ccc(OC(F)F)cn1)C2 [Example 93, 2′-chloro-N-(5-(5-(difluoromethoxy)picolinoyl)-5,6-dihydro-4H-pyrrolo[3,4-d]thiazol-2-yl)-5′-methoxy-6-methyl-[4,4′-bipyridine]-3-carboxamide] | 0.001 to 0.1 | 1 to 15 | 0.001 to 0.5 |
| COc1cnc(Cl)cc1-c1cc(C)ncc1C(=O)Nc1nc2c(s1)CN(C(=O)c1cc(C(F)F)ccn1)C2 [Example 94, 2′-chloro-N-(5-(4-(difluoromethyl)picolinoyl)-5,6-dihydro-4H-pyrrolo[3,4-d]thiazol-2-yl)-5′-methoxy-6-methyl-[4,4′-bipyridine]-3-carboxamide] | 0.001 to 0.1 | 1 to 15 | ≥ 10 |
| COc1cnc(Cl)cc1-c1cc(C)ncc1C(=O)Nc1nc2c(s1)CN(C(=O)c1cc(C(C)C)n(C)n1)C2 [Example 95, 2′-chloro-N-(5-(5-isopropyl-1-methyl-1H-pyrazole-3-carbonyl)-5,6-dihydro-4H-pyrrolo[3,4-d]thiazol-2-yl)-5′-methoxy-6-methyl-[4,4′-bipyridine]-3-carboxamide] | 0.001 to 0.1 | 1 to 15 | ≥ 10 |
| COc1cn2cncc2cc1-c1cc(C)ncc1C(=O)Nc1nc2c(s1)CN(C(=O)c1ccc(C(F)F)cn1)C2 [Example 117] | 0.001 to 0.1 | 1 to 15 | ≥ 10 |
